From PubChem BioAssay AID330 (DTP/NCI, 2004)
Inconclusive results and toxic doses are left out.

Test system: P388 leukemia ip, CD2F1 mice, survival T/C
Assay: NCI In Vivo Anticancer Drug Screen. Data for tumor model P388 Leukemia (intraperitoneal) in CD2F1 (CDF1) mice
Settings: endpoint: median survival time, higher = longer survival
How it was run: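 Mice carrying the transplanted tumor received test compound or vehicle. Survival was recorded in each group, and the value is the treated-group measurement divided by that of the vehicle-treated control group.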

[1] = dose: 50.0 mg/kg/injection, schedule: Q01DX009 (ip), vehicle: Klucel (hydroxypropylcellulose) (HPC)
[2] = dose: 100.0 mg/kg/injection, schedule: Q01DX009 (ip), vehicle: Klucel (hydroxypropylcellulose) (HPC)
[3] = dose: 200.0 mg/kg/injection, schedule: Q01DX009 (ip), vehicle: Klucel (hydroxypropylcellulose) (HPC)
[4] = dose: 50.0 mg/kg/injection, schedule: Q01DX005 (ip), vehicle: Klucel (hydroxypropylcellulose) (HPC)

With `C1=NC(c2ccccn2)=NNC(c2ccccn2)=C1c1ccccc1` the T/C (dose: 12.5 mg/kg/injection, schedule: Q01DX009 (ip), vehicle: Klucel (hydroxypropylcellulose) (HPC)) was 97 % of control, the T/C (dose: 25.0 mg/kg/injection, schedule: Q01DX009 (ip), vehicle: Klucel (hydroxypropylcellulose) (HPC)) was 98 % of control and the T/C [1] was 93 % of control. For the same compound, the T/C [2] was 96 % of control and the T/C [3] was 93 % of control.

With `O=C(Nc1ccc(Cl)c(Cl)c1)NC1CC1` the T/C (dose: 50.0 mg/kg/injection, schedule: Q01DX009 (ip), vehicle: saline with Tween-80) was 119 % of control, the T/C (dose: 100.0 mg/kg/injection, schedule: Q01DX009 (ip), vehicle: saline with Tween-80) was 102 % of control and the T/C (dose: 200.0 mg/kg/injection, schedule: Q01DX009 (ip), vehicle: saline with Tween-80) was 93 % of control.

`CC(=O)Nc1c(Nc2ccc3c(=O)[nH]ccc3c2C)cc[nH]c1=O` was tested, and the T/C (dose: 60.0 mg/kg/injection, schedule: Q01DX005 (ip), vehicle: saline with Tween-80) was 102 % of control, the T/C (dose: 120.0 mg/kg/injection, schedule: Q01DX005 (ip), vehicle: saline with Tween-80) was 104 % of control and the T/C (dose: 240.0 mg/kg/injection, schedule: Q01DX005 (ip), vehicle: saline with Tween-80) was 103 % of control.

With `CC(=O)OC1CC(C)OC(OC2CCC3(C=O)C4C(O)C(=O)[C@]5(C)C(c6ccc(=O)oc6)CC[C@]5(O)C4CC[C@]3(O)C2)C1OC(C)=O` (some centres not stated) the T/C (dose: 0.18 mg/kg/injection, schedule: Q01DX009 (ip), vehicle: distilled water + Tween-80 + alcohol) was 90 % of control, the T/C (dose: 0.35 mg/kg/injection, schedule: Q01DX009 (ip), vehicle: distilled water + Tween-80 + alcohol) was 107 % of control and the T/C (dose: 0.71 mg/kg/injection, schedule: Q01DX009 (ip), vehicle: distilled water + Tween-80 + alcohol) was 100 % of control. For the same compound, the T/C (dose: 1.42 mg/kg/injection, schedule: Q01DX009 (ip), vehicle: distilled water + Tween-80 + alcohol) was 109 % of control and the T/C (dose: 2.84 mg/kg/injection, schedule: Q01DX009 (ip), vehicle: distilled water + Tween-80 + alcohol) was 100 % of control.

For `NCC(=O)NC(CSC(c1ccccc1)c1ccccc1)C(=O)NCC(=O)O` (configuration not stated), the T/C [4] was 102 % of control, the T/C (dose: 100.0 mg/kg/injection, schedule: Q01DX005 (ip), vehicle: Klucel (hydroxypropylcellulose) (HPC)) was 103 % of control and the T/C (dose: 200.0 mg/kg/injection, schedule: Q01DX005 (ip), vehicle: Klucel (hydroxypropylcellulose) (HPC)) was 96 % of control.

For `CCOc1c(N=Nc2ccc(Cl)cc2)c(-c2ccccc2)nn1C(N)=S`, the T/C (dose: 50.0 mg/kg/injection, schedule: Q01DX005 (ip), vehicle: saline + Tween-80 + alcohol) was 108 % of control, the T/C (dose: 100.0 mg/kg/injection, schedule: Q01DX005 (ip), vehicle: saline + Tween-80 + alcohol) was 94 % of control and the T/C (dose: 200.0 mg/kg/injection, schedule: Q01DX005 (ip), vehicle: saline + Tween-80 + alcohol) was 99 % of control.

With `C=CCNCCC1CCCCCC1` the T/C [4] was 102 % of control.

With `Cc1ccc(S(=O)(=O)/N=S(\C)CC(C)Cl)cc1` (configuration not stated) the T/C [1] was 100 % of control, the T/C [2] was 105 % of control and the T/C [3] was 105 % of control.

For `CC(C)(C)NC(=O)C(Cl)Cl`, the T/C (dose: 50.0 mg/kg/injection, schedule: Q01DX001 (ip), vehicle: saline with Tween-80) was 100 % of control, the T/C (dose: 100.0 mg/kg/injection, schedule: Q01DX001 (ip), vehicle: saline with Tween-80) was 100 % of control and the T/C (dose: 200.0 mg/kg/injection, schedule: Q01DX001 (ip), vehicle: saline with Tween-80) was 95 % of control.

`CN(C)c1ccc(C2OC(=N)C(=S)N2C)cc1` (configuration not stated) was tested, and the T/C (dose: 60.0 mg/kg/injection, schedule: Q01DX005 (ip), vehicle: Klucel (hydroxypropylcellulose) (HPC)) was 112 % of control, the T/C (dose: 120.0 mg/kg/injection, schedule: Q01DX005 (ip), vehicle: Klucel (hydroxypropylcellulose) (HPC)) was 109 % of control and the T/C (dose: 240.0 mg/kg/injection, schedule: Q01DX005 (ip), vehicle: Klucel (hydroxypropylcellulose) (HPC)) was 109 % of control.

With `COC(C(=O)C(O)C(C)O)C1CC2C=C3C=C(OC4CC(OC5CC(O)C(OC)C(C)O5)C(OC(C)=O)C(C)O4)C(C)C(=O)C3=C(O)C2=C(O)C1OC1CC(OC2CC(OC3CC(C)(O)C(O)C(C)O3)C(O)C(C)O2)C(O)C(C)O1` (configuration not stated) the T/C (dose: 0.25 mg/kg/injection, schedule: Q01DX001 (ip), vehicle: water) was 110 % of control, the T/C (dose: 0.5 mg/kg/injection, schedule: Q01DX001 (ip), vehicle: water) was 112 % of control and the T/C (dose: 1.0 mg/kg/injection, schedule: Q01DX001 (ip), vehicle: water) was 118 % of control. For the same compound, the T/C (dose: 2.0 mg/kg/injection, schedule: Q01DX001 (ip), vehicle: water) was 124 % of control and the T/C (dose: 8.0 mg/kg/injection, schedule: Q01DX001 (ip), vehicle: water) was 154 % of control.

With `O=C1c2ccccc2C(=O)c2ncccc21` the T/C (dose: 100.0 mg/kg/injection, schedule: Q04DX003 (ip), vehicle: saline with Tween-80) was 100 % of control, the T/C (dose: 200.0 mg/kg/injection, schedule: Q04DX003 (ip), vehicle: saline with Tween-80) was 99 % of control and the T/C (dose: 400.0 mg/kg/injection, schedule: Q04DX003 (ip), vehicle: saline with Tween-80) was 100 % of control.

`C=CCNC(=S)N/N=C(/c1ccccn1)C(C)C` was tested, and the T/C (dose: 50.0 mg/kg/injection, schedule: Q01DX005 (ip), vehicle: saline with Tween-80) was 103 % of control and the T/C (dose: 100.0 mg/kg/injection, schedule: Q01DX005 (ip), vehicle: saline with Tween-80) was 109 % of control.
